From US4278671A, “7-[2-(2-Aminothiazol-4-yl)-2-(syn)-methoxyiminoacetamido] cephalosporins” (Takeda Chemical Industries, Ltd., priority 1976, dated 1981)
≈ marks a conversion by molar mass, not a printed value. Where two headings read alike, the source gives them in different places.

Legend:
[1] = tested on: E. coli NIHJ; experiment: minimal inhibitory concentration against E. coli NIHJ; format: cell-based; details: Escherichia coli
[2] = tested on: E. coli 0-111; experiment: minimal inhibitory concentration against E. coli 0-111; format: cell-based, Escherichia coli; details: 0111
[3] = tested on: E. coli T-7; experiment: minimal inhibitory concentration against E. coli T-7; format: cell-based; details: Escherichia coli, T7
[4] = tested on: Klebsiella pneumoniae DT; experiment: minimal inhibitory concentration against K. pneumoniae DT; format: cell-based
[5] = tested on: Klebsiella pneumoniae GN 3835; experiment: minimal inhibitory concentration against K. pneumoniae GN 3835; format: cell-based; details: GN3835
[6] = tested on: Serratia marcescens IFO 12648; experiment: minimal inhibitory concentration against Serr. marcescens IFO 12648; format: cell-based; details: IFO12648
[7] = tested on: Serratia TN 0024; experiment: minimal inhibitory concentration against Serratia TN 0024; format: cell-based
[8] = tested on: Proteus vulgaris IFO 3988; experiment: minimal inhibitory concentration against P. vulgaris IFO 3988; format: cell-based; details: IFO3988
[9] = tested on: P. vulgaris GN 4413; experiment: minimal inhibitory concentration against P. vulgaris GN 4413; format: cell-based; details: Proteus vulgaris, GN4413
[10] = tested on: Proteus mirabilis GN 4359; experiment: minimal inhibitory concentration against P. mirabilis GN 4359; format: cell-based; details: GN4359
[11] = tested on: Proteus morganii IFO 3168; experiment: minimal inhibitory concentration against P. morganii IFO 3168; format: cell-based; details: Morganella morganii, IFO3168
[12] = tested on: P. rettgeri 8(TN0336); experiment: minimal inhibitory concentration against P. rettgeri 8 (TN0336); format: cell-based, Proteus rettgeri; details: Providencia rettgeri
[13] = tested on: Proteus rettgeri GN 4733; experiment: minimal inhibitory concentration against P. rettgeri GN 4733; format: cell-based; details: Providencia rettgeri, GN4733
[14] = tested on: Citrobacter freundii GN 99; experiment: minimal inhibitory concentration against Cit. freundii GN 99; format: cell-based; details: GN99
[15] = tested on: Citrobacter freundii GN 1706; experiment: minimal inhibitory concentration against Cit. freundii GN 1706; format: cell-based; details: GN1706
[16] = tested on: Enterobacter cloacae IFO 12937; experiment: minimal inhibitory concentration against Ent. cloacae IFO 12937; format: cell-based
[17] = tested on: E. coli; experiment: protective effect on infected mice (intraperitoneal infection with E. coli); format: in vivo; details: Escherichia coli, 168 h, male mice ICR/SLC, 7 days observation
Description: *Test animals: male mice (ICR/SLC) 5 mice per group per single
Infection: intraperitoneally with E. coli
Observation period: 7 days

[18] = tested on: Ps. aeruginosa Pd 1; experiment: minimal inhibitory concentration against Ps. aeruginosa Pd 1; format: cell-based; details: Pseudomonas aeruginosa, PD1
[19] = tested on: Ps. aeruginosa PM 3; experiment: minimal inhibitory concentration against Ps. aeruginosa PM 3; format: cell-based; details: Pseudomonas aeruginosa, PM3
[20] = tested on: Ps. aeruginosa P2; experiment: minimal inhibitory concentration against Ps. aeruginosa P2; format: cell-based; details: Pseudomonas aeruginosa
[21] = tested on: Ps. aeruginosa GN3407; experiment: minimal inhibitory concentration against Ps. aeruginosa GN3407; format: cell-based; details: Pseudomonas aeruginosa
[22] = tested on: Ent. cloacae TN1282; experiment: minimal inhibitory concentration against Ent. cloacae TN1282; format: cell-based; details: Enterobacter cloacae
[23] = tested on: Acinetobacter anitratus TN-1140; experiment: minimal inhibitory concentration against Acinetobacter anitratus TN-1140; format: cell-based; details: Acinetobacter calcoaceticus, TN1140
[24] = Escherichia coli, E. coli 0-111, read-out: minimal inhibitory concentration
[25] = Klebsiella pneumoniae, K. pneumoniae DT, read-out: minimal inhibitory concentration
[26] = Klebsiella pneumoniae, K. pneumoniae GN 3835, read-out: minimal inhibitory concentration
[27] = Serratia marcescens, Serr. marcescens IFO 12648, read-out: minimal inhibitory concentration
[28] = TN0024, Serratia TN 0024, read-out: minimal inhibitory concentration
[29] = Proteus vulgaris, P. vulgaris IFO 3988, read-out: minimal inhibitory concentration
[30] = Proteus mirabilis, P. mirabilis GN 4359, read-out: minimal inhibitory concentration
[31] = P. morganii IFO 3168, read-out: minimal inhibitory concentration
[32] = P. rettgeri 8(TN0336), read-out: minimal inhibitory concentration
[33] = P. rettgeri GN 4733, read-out: minimal inhibitory concentration
[34] = Citrobacter freundii, Cit. freundii GN 99, read-out: minimal inhibitory concentration
[35] = Citrobacter freundii, Cit. freundii GN 1706, read-out: minimal inhibitory concentration

| Structure (SMILES) | MIC [1] [mg/L] | MIC [2, 24] [mg/L] | MIC [3] [mg/L] | MIC [4, 25] [mg/L] | MIC [5, 26] [mg/L] | MIC [6, 27] [mg/L] | MIC [7, 28] [mg/L] | MIC [8, 29] [mg/L] | MIC [9] [mg/L] | MIC [10, 30] [mg/L] | MIC [11, 31] [mg/L] | MIC [12, 32] [mg/L] | MIC [13, 33] [mg/L] | MIC [14, 34] [mg/L] | MIC [15, 35] [mg/L] | ED50 ([17]; subcutaneous (SC)) [mg/kg] | MIC [18] [mg/L] | MIC [19] [mg/L] | MIC [20] [mg/L] | MIC [21] [mg/L] | further results |
| --- | --- | --- | --- | --- | --- | --- | --- | --- | --- | --- | --- | --- | --- | --- | --- | --- | --- | --- | --- | --- | --- |
| CO/N=C(\C(=O)NC1C(=O)N2C(C(=O)O)=C(CSc3nnc(C)s3)CSC12)c1csc(N)n1 (stereo not drawn) [(a), Sodium 7-[2-(2-aminothiazol-4-yl)-2-(syn)-methoxyiminoacetamido]-3-(2-methyl-1,3,4-thiadiazol-5-yl)thiomethyl-3-cephem-4-carboxylate] | 0.2 | 0.1 | 1.56 | 0.05 | 0.39 | 0.78 | 0.78 | 0.1 | 1.56 | 0.2 | 0.1 | ≤ 0.012 | 0.39 | 0.2 | 0.78 |  |  |  |  |  | MIC ([16]; Enterobacter cloacae, Ent. cloacae IFO12937, read-out: minimum inhibitory concentration): 3.13 mg/L |
| O=C(Cc1cccs1)N[C@@H]1C(=O)N2C(C(=O)[O-])=C(C[n+]3ccccc3)CS[C@H]12 [CER, cephaloridine, reference compound] |  |  |  |  |  |  |  |  |  |  |  |  |  |  |  | 1.25 |  |  |  |  |  |
| CC1=C(C(=O)O)N2C(=O)[C@@H](NC(=O)[C@H](N)c3ccccc3)[C@H]2SC1 [CEX, cephalexin, reference compound] |  |  |  |  |  |  |  |  |  |  |  |  |  |  |  |  |  |  |  |  | ED50 ([17]; oral): 2.51 mg/kg |
| CO/N=C(\C(=O)NC1C(=O)N2C(C(=O)O)=C(COC(N)=O)CSC12)c1csc(N)n1 (stereo not drawn) [Example 1, sodium 7-[2-(2-aminothiazol-4-yl)-2-(syn)-methoxyiminoacetamido]-3-carbamoyloxymethyl-3-cephem-4-carboxylate] | 0.1 | 0.024 | 0.39 | < 0.012 | 0.05 | 1.56 | 0.2 | ≤ 0.02 | 1.56 | ≤ 0.02 | 0.39 | ≤ 0.012 | 0.05 | 0.2 | 0.39 | 0.015 | 50 | 3.13 | 25 | > 100 | MIC [22]: 6.25 mg/L; MIC [23]: 6.25 mg/L |
| CO/N=C(\C(=O)NC1C(=O)N2C(C(=O)O)=C(CSc3nnnn3C)CSC12)c1csc(N)n1 (stereo not drawn) [Example 2] | 0.1 (≈ 0.195 µM) | 0.024 (≈ 0.0469 µM) | 0.78 (≈ 1.52 µM) | 0.024 (≈ 0.0469 µM) | 0.2 (≈ 0.391 µM) | 0.78 (≈ 1.52 µM) | 0.2 (≈ 0.391 µM) | 0.024 (≈ 0.0469 µM) | 0.39 (≈ 0.762 µM) | 0.1 (≈ 0.195 µM) | 0.05 (≈ 0.0977 µM) | ≤ 0.012 | 0.2 (≈ 0.391 µM) | 0.1 (≈ 0.195 µM) | 0.2 (≈ 0.391 µM) | 0.022 | 12.5 (≈ 24.4 µM) | 0.78 (≈ 1.52 µM) | 50 (≈ 97.7 µM) | 50 (≈ 97.7 µM) | MIC [22]: 1.56 mg/L (≈ 3.05 µM); MIC [23]: 25 mg/L (≈ 48.9 µM) |
| CO/N=C(\C(=O)NC1C(=O)N2C(C(=O)O)=C(COC(C)=O)CSC12)c1csc(N)n1 (stereo not drawn) [Example 3, sodium 7-[2-(2-aminothiazol-4-yl)-2-(syn)-methoxyiminoacetamido]cephalosporanate] | 0.2 | 0.05 | 0.78 | 0.024 | 0.05 | 3.13 | 0.78 | 0.024 | 0.78 | 0.05 | 0.2 | ≤ 0.012 | 0.2 | 0.2 | 0.39 | 0.018 | 25 | 1.56 | 50 | 50 | MIC [22]: 6.25 mg/L; MIC [23]: 25 mg/L |
| CO/N=C(\C(=O)NC1C(=O)N2C(C(=O)O)=C(C)CSC12)c1csc(N)n1 (stereo not drawn) [Example 5, sodium 7-[2-(2-aminothiazol-4-yl)-2-(syn)-methoxyiminoacetamido]desacetoxycephalosporanate] | 0.78 | 0.39 | 6.25 | 0.2 | 0.2 | 12.5 | 1.56 | 0.2 | 1.56 | 0.1 | 12.5 | ≤ 0.012 | 0.1 | 3.13 | 6.25 | 0.111 | > 100 | 25 | > 100 | > 100 | MIC [22]: 50 mg/L; MIC [23]: 12.5 mg/L |
| CO/N=C(\C(=O)NC1C(=O)N2C(C(=O)OCOC(=O)C(C)(C)C)=C(CSc3nnnn3C)CSC12)c1csc(N)n1 (stereo not drawn) [Example 15] |  |  |  |  |  |  |  |  |  |  |  |  |  |  |  |  |  |  |  |  | ED50 ([17]; oral): 0.11 mg/kg |
| CO/N=C(/C(=O)NC1C(=O)N2C(C(=O)O)=C(COC(N)=O)CSC12)c1csc(N)n1 (stereo not drawn) [compound 27, sodium 7-[(2-aminothiazol-4-yl)-α-(anti)-methoxyimino]acetamido-3-carbamoyloxymethyl-3-cephem-4-carboxylate, reference compound] |  |  |  |  |  |  |  |  |  |  |  |  |  |  |  |  |  |  |  |  | MIC ([2]; Escherichia coli 0-111, read-out: MIC): 0.78 mg/L; MIC ([4]; Klebsiella pneumoniae DT, read-out: MIC): 1.56 mg/L; MIC ([5]; Klebsiella pneumoniae GN 3835, read-out: MIC): 6.25 mg/L; MIC ([6]; Serratia marcescens IFO 12648, read-out: MIC): 12.5 mg/L; MIC ([7]; Serratia TN0024, read-out: MIC): 6.25 mg/L; MIC ([8]; Proteus vulgaris IFO 3988, read-out: MIC): 0.39 mg/L; MIC ([10]; Proteus mirabilis GN 4359, read-out: MIC): 0.78 mg/L; MIC ([11]; Proteus morganii IFO 3168, read-out: MIC): 0.78 mg/L; MIC ([12]; Proteus rettgeri 8 TNO 336, read-out: MIC): < 0.2 mg/L; MIC ([13]; Proteus rettgeri GN 4733, read-out: MIC): 0.78 mg/L; MIC ([14]; Citrobacter freundii GN 99, read-out: MIC): 1.56 mg/L; MIC ([15]; Citrobacter freundii GN 1706, read-out: MIC): 3.13 mg/L; MIC ([16]; IFO12937, Enterobacter cloacae IFO 12937, read-out: MIC): 25 mg/L |
